Legend:
[1] = tested on: Myc/p53ER^TAM/GFP-LC3 cells; test: GFP-LC3 fluorescence imaging; assay type: cell-based, mice; details: hTAM 250 mM, CQ 5 pM as printed; 48 hours
Experimental: For GFP-LC3 fluorescence imaging, Myc/p53ER^TAM/IGFP-LC3 cells (see below) were exposed to the indicated treatments and fixed with 4% paraformaldehyde for 30 minutes at room temperature, washed three times and centrifuged onto slides. DAPI counterstain was used to identify cells with intact nuclei. All fluorescence imaging was performed and digitally captured at 100× magnification on a Nikon Eclipse E800 fluorescent microscope.

[2] = tested on: Bax^−/−Bak^−/− cells; test: Viability of IL-3 dependent Bax−/−Bak−/− cells (propidium iodide exclusion); assay type: cell-based, mice; details: for effect on survival of cells grown in the presence of IL-3 / death of the cells in the cultures: 5 mM 3-MA or 10 μM CQ; for effect on survival of cells grown in the presence of IL-3: IL-3 present; for death of the cells in the cultures: by 48 hours, cells deprived of growth factor for 6 weeks
Experimental: Immortalized IL-3 dependent cells were obtained from the bone marrow of two independent Bax^−/−Bak^−/− mice using previously established protocols. Subsequent experiments using these cells were performed in complete media consisting of: RPMI 1640 medium (Invitrogen) supplemented with 10% heat inactivated fetal bovine serum (Gemini), 10 units/mL penicillin/streptomycin and 2 mM L-glutamine (Invitrogen), 50 μm β-mercaptoethanol (Sigma) and 10 mM HEPES (Invitrogen). For cells grown in the presence of IL-3, the complete medium was supplemented with 3.5 ng/mL of murine recombinant IL-3 (BD Pharmingen). For IL-3 withdrawal experiments, cells were washed three times in medium without IL-3 and serum. After the final wash, cells were resuspended in complete medium without IL-3. Medium for cells cultured in the absence of IL-3 was replaced with fresh complete medium without IL-3 every 10 days. […] Cell size and number was assessed by using a Coulter Z2 particle analyzer. For readdition experiments, cells grown in the absence of IL-3 at the indicated time points were pelleted by centrifugation and resuspended in complete media containing 3.5 ng/mL IL-3. The FL5.12 cell line was maintained in complete media supplemented with 0.35 ng/mL IL-3. For measurement of mitochondrial membrane potential, cells were incubated for 30 minutes with 50 nM of tetramethyl rhodamine ethyl ester (TMRE; Molecular Probes) in the presence or absence of 50 μM CCCP (Sigma). Viability was performed by incubating cells with annexin V conjugated fluorescein isothiocyanate (BD Pharmingen) in buffer containing 1 μg/mL propidium iodide (Molecular Probes) followed by FACS analysis. DNA fragmentation assay was performed as previously described.

[3] = tested on: Bax^−/−Bak^−/− cells; test: ATP levels in growth factor-deprived cells; assay type: cell-based, mice; details: IL-3 deprived cells; for ATP levels: 8 hours after addition of drug
Experimental: The conversion of 5-^3H-glucose to ^3H2O was used to measure the glycolytic rate. The level of ATP was measured as described previously.

[4] = tested on: LC3; test: LC3 immunofluorescence staining of autophagosomes; assay type: cell-based, mice; details: cells without IL-3 for 6 weeks, 18 hours of 5 mM 3-MA or 10 μM CQ
Experimental: Antibodies (all 1:1000 dilution) used were: GLUT1 (Research Diagnostic Inc.), calreticulin (StressGen), STAT3 (Cell Signalling), actin (Sigma), LC3 (gift from T. Yoshimori), ATG5 (gift from N. Mizushima), Bax (Santa Cruz) and Bak (Upstate Technologies). For immunofluorescence staining, cells were fixed in 4% paraformaldehyde and permeabilized with 0.1% Triton X-100, washed 3 times (PBS containing 0.01% Triton X-100 and 10% FBS), followed by incubation with […]. […] Images were captured using a Zeiss 510 confocal microscope. For surface analysis, cells were fixed in 4% paraformaldehyde, stained with 1:100 biotin-anti-IL-3 alpha chain receptor (BD Pharmingen) and a 1:100 dilution of streptavidin conjugated fluorescein isothiocyanate (BD Pharmingen) followed by FACS analysis.

[5] = tested on: Myc/p53ER^TAM lymphoma cells; test: In vitro growth of Myc/p53ER^TAM lymphoma cells (cell number); assay type: cell-based, mice; details: Mus musculus, 96 h; cell number measured on day 4, medium changed daily, single agent; read-out: IC50, impairment of lymphoma cell growth
Source text: For all in vitro experiments media+supplements and drugs treatments were changed daily.

[6] = tested on: Myc/p53ER^TAM lymphomas; test: Myc/p53ER^TAM lymphoma tumor growth, regression and recurrence in syngeneic mice; assay type: in vivo
Experimental: All experiments were performed in accordance with approved animal safety protocols. All experiments were carried out using 8-10 week old C57BL/6X129F1 mice obtained from The Jackson Laboratory (Bar Harbor, Me.). Bone marrow cell harvest and production of bone marrow-derived neoplasms followed the protocol previously described. After primary tumor formation, tumor cells were harvested in ice cold PBS by passage through a […] nylon mesh (BD Bioscience, Bedford, Md.) and expanded in vivo by subcutaneous injection into the flanks of syngeneic mice. For tissue analysis, all animals were sacrificed individually by CO2 asphyxiation and tissue was harvested immediately. Tumors were harvested in ice cold PBS. For each tumor, sections of visually viable tumor tissue were fixed in 10% formalin for preparation of paraffin-embedded sections, glutaraldehyde for electron microscopy (see below). Tumor cell lysates were achieved through manual agitation of remaining tumor tissue in RIPA buffer.
(§1) For tamoxifen (TAM) treatment, the hormone powder (Sigma, St. Louis) was dispersed, via sonication, in peanut oil (Sigma) at a concentration of 10 mg/mL. The administration of TAM was done via daily IP injections at the dose of 1 mg per mouse.
(§2) 4-hydroxytamoxifen (hTAM) (Sigma) was dissolved in ethanol. Cyclophosphamide (Sigma) was dissolved in PBS. Tumors were measured on a daily basis using calipers and tumor volume was calculated using the formula: (mm^3)=AxBx[A+B]/2

[7] = Observed toxicity in treated tumor-bearing mice
Experimental: as §1, §2

[8] = tested on: Myc/p53ER^TAM lymphomas; test: Electron microscopy and quantification of autophagosomes in tumors; assay type: in vivo, mice; details: 24 hours after initiation of TAM/PBS compared to 48 hours of PBS alone; p<0.0005
Source text: Cells were postfixed with 2% osmium tetroxide followed by an increasing gradient dehydration step using ethanol and propylene oxide. […] Data is presented as mean ±SD.

[9] = tested on: cleaved caspase 3; test: Western blot of cleaved caspase 3 in tumor lysates; assay type: in vivo, mice; details: lysates obtained at 48 hours; data not shown
Source text: Cultured cells were lysed in RIPA buffer. Tumor lysates were obtained by manual agitation of tumor tissue and lysis in RIPA. Lysates were standardized for protein content and resolved by SDS-PAGE on 14% NuPAGE gels (Invitrogen, St Louis, Mo.). Nitrocellulose blots were probed with antibodies against cleaved caspase 3 (rabbit monoclonal antibody; […]) (Cell Signaling, Beverly, Mass.); anti-actin (mouse monoclonal antibody; 1:10,000) (Sigma, St. Louis, Mo.); anti-ATG5 (rabbit polyclonal antibody; 1:2000) (gift from N. Mizushima).

Compound: 4-hydroxytamoxifen [hTAM]
- punctate GFP-LC3 fluorescence [1]: increased number of punctate LC3 associated vesicles

Compound: Cn1cnc(N)c2ncnc1-2 [3-MA, 3-methyladenine]
- effect on survival of cells grown in the presence of IL-3 [2]: no significant effect
- death of the cells in the cultures [2]: 72%
- ATP levels [3]: dramatic decline in ATP levels
- number of autophagosomes (LC3 redistribution from punctate to diffuse staining) [4]: reduction in the number of autophagosomes

Compound: CCN(CC)CCCC(C)Nc1ccnc2cc(Cl)ccc12 (centres unmarked) [CQ, chloroquine]
- effect on survival of cells grown in the presence of IL-3 [2]: no significant effect
- death of the cells in the cultures [2]: 82%
- IC50 [5]: 3000 nM
- ATP levels [3]: dramatic decline in ATP levels
- tumor regression ([6]; CQ 50 or 60 mg/kg/day IP daily, single agent): not observed
- average time to tumor recurrence ([6]; cyclophosphamide 50 mg/kg IP once followed by daily CQ 60 mg/kg/day IP for 13 days): 12.5 ± 6.6 days
- additional toxicity in treated animals ([7]; CQ cotreatment with TAM or with cyclophosphamide): did not result in additional toxicity
- observed toxicity ([7]; daily IP 50 mg/kg/day or 60 mg/kg/day): no observed toxicity
- tolerability of systemic administration ([7]; for up to 20 days): well tolerated
- number of autophagosomes (LC3 redistribution from punctate to diffuse staining) [4]: reduction in the number of autophagosomes
- punctate GFP-LC3 fluorescence [1]: Some punctate GFP-LC3 fluorescence

Compound: CC/C(=C(\c1ccccc1)c1ccc(OCCN(C)C)cc1)c1ccccc1 [TAM/PBS, tamoxifen]
- increase of percentage of tumor cells with autophagosomes [8]: 30 fold
- cleaved caspase 3 in tumor lysates [9]: absent
- mice with complete clinical regression of their tumor ([6]; TAM/CQ and TAM/HCQ pooled in one figure, p<0.005): 8%

Compound: O=P1(N(CCCl)CCCl)NCCCO1 (centres unmarked) [cyclophosphamide]
- average time to tumor recurrence ([6]; cyclophosphamide 50 mg/kg IP once followed by daily PBS): 5.25 ± 1.9 days
- tumor regression ([6]; single dose cyclophosphamide 50 mg/kg IP with or without CQ): complete tumor regression in all treated mice

Compound: COC(=O)C(C)=O [methyl pyruvate]
- effect on death observed in response to 3-MA and CQ ([2]; 10 mM methyl pyruvate added at the time of 3-MA or CQ treatment, IL-3 deprived 6 weeks): suppressed the death
- effect on ATP decline caused by 3-MA or CQ ([3]; 10 mM MP, 8 hours): could be suppressed

Source: patent publication US20080269259A1, “Regulation of Autophagy and Cell Survival” (THE TRUSTEES OF THE UNIVERSITY OF PENNSYLVANIA, priority 2005, published 2008)
